Test results from ChEMBL document CHEMBL2176970, “Discovery and optimization of a series of 3-(3-phenyl-3H-imidazo[4,5-b]pyridin-2-yl)pyridin-2-amines: orally bioavailable, selective, and potent ATP-independent Akt inhibitors” (J Med Chem, 2012).
Active and inactive are the calls of the source. The rule behind the calls is not given here.

What was measured:
[1] = biological target: Serine/threonine-protein kinase PAK 2 (Homo sapiens) (UniProt Q13177); assay: Inhibition of PAK2 using fluorescent labelled substrate at 5 uM by caliper method
[2] = biological target: Protein kinase C alpha type (Homo sapiens) (UniProt P17252); assay: Inhibition of PKCalpha using fluorescent labelled substrate at 5 uM by caliper method
Cytochrome P450 2C19 = Cytochrome P450 2C19 (Homo sapiens, UniProt P33261); assay: Inhibition of CYP2C19 in human liver microsomes using S-mephenytoin as substrate after 10 mins; type: ADME, Microsome
[3] = biological target: Insulin receptor (Homo sapiens) (UniProt P06213); assay: Inhibition of INSR using fluorescent labelled substrate at 5 uM by caliper method
[4] = biological target: Cyclin-dependent kinase 2/cyclin E (Homo sapiens) (UniProt P24864+P24941+O96020); assay: Inhibition of CDK2/cyclinE using fluorescent labelled substrate at 5 uM by caliper method; type: protein-complex assay
[5] = biological target: Serine/threonine-protein kinase Sgk1 (Homo sapiens) (UniProt O00141); assay: Inhibition of SGK1 using fluorescent labelled substrate at 5 uM by caliper method
[6] = biological target: Cyclin-dependent kinase 5/CDK5 activator 1 (Homo sapiens) (UniProt Q00535+Q15078); assay: Inhibition of CDK5/p35 using fluorescent labelled substrate at 5 uM by caliper method; type: protein-complex assay
[7] = biological target: Ribosomal protein S6 kinase alpha-1 (Homo sapiens) (UniProt Q15418); assay: Inhibition of RSK1 using fluorescent labelled substrate at 5 uM by caliper method
Cytochrome P450 2D6 = Cytochrome P450 2D6 (Homo sapiens, UniProt P10635); assay: Inhibition of CYP2D6 in human liver microsomes using bufuralol as substrate after 10 mins; type: ADME, Microsome
Cytochrome P450 2C9 = Cytochrome P450 2C9 (Homo sapiens, UniProt P11712); assay: Inhibition of CYP2C9 in human liver microsomes using tolbutamide as substrate after 10 mins; type: ADME, Microsome
[8] = biological target: cAMP-dependent protein kinase catalytic subunit PRKX (Homo sapiens) (UniProt P51817); assay: Inhibition of PRKX using fluorescent labelled substrate at 5 uM by caliper method
[9] = biological target: T1, RAC-alpha serine/threonine-protein kinase (Homo sapiens, UniProt P31749); assay: Inhibition of Akt 1 in human A2780 cells assessed as phosphorylation of Akt at T308 after 2 hrs by Western Blot analysis; type: cell-based
[10] = biological target: T1, RAC-alpha serine/threonine-protein kinase; assay: Inhibition of Akt1 in human AN3CA cells assessed as phosphorylation PRAS40 at T246 after 2 hrs by Western Blot analysis; type: cell-based, AN3-CA
[11] = biological target: Ribosomal protein S6 kinase alpha-3 (Homo sapiens) (UniProt P51812); assay: Inhibition of RSK2 using fluorescent labelled substrate at 5 uM by caliper method
[12] = Inhibition of PKA using fluorescent labelled substrate at 5 uM by caliper method
[13] = biological target: T1, RAC-alpha serine/threonine-protein kinase; assay: Inhibition of Akt 1 in human AN3CA cells assessed as phosphorylation of Akt at T308 after 2 hrs by Western Blot analysis; type: cell-based, AN3-CA
AN3-CA = assay: Antiproliferative activity against human AN3CA cells after 72 hrs by MTS assay; type: functional, cell-based
[14] = biological target: Proto-oncogene tyrosine-protein kinase receptor Ret (Homo sapiens) (UniProt P07949); assay: Inhibition of RET using fluorescent labelled substrate at 5 uM by caliper method
[15] = biological target: Fibroblast growth factor receptor 1 (Homo sapiens) (UniProt P11362); assay: Inhibition of FGFR1 using fluorescent labelled substrate at 5 uM by caliper method
[16] = biological target: Ribosomal protein S6 kinase alpha-6 (Homo sapiens) (UniProt Q9UK32); assay: Inhibition of RSK4 using fluorescent labelled substrate at 5 uM by caliper method
[17] = biological target: Angiopoietin-1 receptor (Homo sapiens) (UniProt Q02763); assay: Inhibition of TIE2 using fluorescent labelled substrate at 5 uM by caliper method
Cytochrome P450 3A4 = Cytochrome P450 3A4 (Homo sapiens, UniProt P08684); assay: Inhibition of CYP3A4 in human liver microsomes using midazolam as substrate after 10 mins; type: ADME, Microsome
[18] = biological target: Calcium/calmodulin-dependent protein kinase type II subunit delta (Homo sapiens) (UniProt Q13557); assay: Inhibition of CAMK2delta using fluorescent labelled substrate at 5 uM by caliper method
[19] = biological target: RAC-beta serine/threonine-protein kinase (Homo sapiens, UniProt P31751); assay: Inhibition of Akt2 (1 to 481) expressed in Sf9 cells using biotin-GRPRTSSFAEG as substrate after 20 mins by Alpha-screen assay
[20] = biological target: Ribosomal protein S6 kinase alpha-2 (Homo sapiens) (UniProt Q15349); assay: Inhibition of RSK3 using fluorescent labelled substrate at 5 uM by caliper method
[21] = Half life in male CD1 mouse liver microsomes at 1 uM by LC/MS/MS; type: ADME, Microsome
[22] = biological target: RAC-gamma serine/threonine-protein kinase (Homo sapiens, UniProt Q9Y243); assay: Binding affinity to Akt3 (1 to 479) expressed in Sf9 cells assessed as change in melting temperature at 15 uM
[23] = biological target: Protein kinase C eta type (Homo sapiens) (UniProt P24723); assay: Inhibition of PKCeta using fluorescent labelled substrate at 5 uM by caliper method
[24] = biological target: Mitogen-activated protein kinase 3 (Homo sapiens) (UniProt P27361); assay: Inhibition of MAPK3 using fluorescent labelled substrate at 5 uM by caliper method
[25] = biological target: T1, RAC-alpha serine/threonine-protein kinase; conditions: Sf9
[26] = biological target: Ribosomal protein S6 kinase alpha-4 (Homo sapiens) (UniProt O75676); assay: Inhibition of MSK2 using fluorescent labelled substrate at 5 uM by caliper method
[27] = biological target: MAP kinase-activated protein kinase 2 (Homo sapiens) (UniProt P49137); assay: Inhibition of MAPKAPK2 using fluorescent labelled substrate at 5 uM by caliper method
[28] = biological target: Rho-associated protein kinase 1 (Homo sapiens) (UniProt Q13464); assay: Inhibition of ROCK1 using fluorescent labelled substrate at 5 uM by caliper method
[29] = Half life in human liver microsomes at 1 uM by LC/MS/MS; type: ADME, Microsome
[30] = biological target: 3-phosphoinositide-dependent protein kinase 1 (Homo sapiens) (UniProt O15530); assay: Inhibition of PDK1 using fluorescent labelled substrate at 5 uM by caliper method
[31] = biological target: Serine/threonine-protein kinase Sgk3 (Homo sapiens) (UniProt Q96BR1); assay: Inhibition of SGK3 using fluorescent labelled substrate at 5 uM by caliper method
[32] = biological target: Serine/threonine-protein kinase Sgk2 (Homo sapiens) (UniProt Q9HBY8); assay: Inhibition of SGK2 using fluorescent labelled substrate at 5 uM by caliper method
A2780 = assay: Antiproliferative activity against human A2780 cells after 72 hrs by MTS assay; type: functional, cell-based; conditions: A2780, 72 h
[33] = biological target: T1, RAC-alpha serine/threonine-protein kinase; assay: Inhibition of Akt1 in human A2780 cells assessed as phosphorylation of Akt at S473 after 2 hrs by Western Blot analysis; type: cell-based
[34] = biological target: Ribosomal protein S6 kinase alpha-5 (Homo sapiens) (UniProt O75582); assay: Inhibition of MSK1 using fluorescent labelled substrate at 5 uM by caliper method

T1 sequence (P31749 whole entry): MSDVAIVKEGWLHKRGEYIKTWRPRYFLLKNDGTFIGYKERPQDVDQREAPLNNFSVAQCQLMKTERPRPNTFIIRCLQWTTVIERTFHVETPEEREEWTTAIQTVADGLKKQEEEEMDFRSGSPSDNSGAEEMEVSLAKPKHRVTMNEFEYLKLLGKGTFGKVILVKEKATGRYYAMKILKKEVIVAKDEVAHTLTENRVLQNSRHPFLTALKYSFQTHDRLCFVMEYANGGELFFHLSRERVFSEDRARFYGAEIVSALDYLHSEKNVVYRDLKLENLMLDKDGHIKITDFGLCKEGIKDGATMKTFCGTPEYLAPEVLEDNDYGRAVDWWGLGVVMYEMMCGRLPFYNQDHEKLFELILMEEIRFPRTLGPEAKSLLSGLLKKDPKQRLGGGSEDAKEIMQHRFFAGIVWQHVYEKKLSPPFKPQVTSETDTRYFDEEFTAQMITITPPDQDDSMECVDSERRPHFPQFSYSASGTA
Proto-oncogene tyrosine-protein kinase receptor Ret (Homo sapiens), sequence (P07949 whole entry): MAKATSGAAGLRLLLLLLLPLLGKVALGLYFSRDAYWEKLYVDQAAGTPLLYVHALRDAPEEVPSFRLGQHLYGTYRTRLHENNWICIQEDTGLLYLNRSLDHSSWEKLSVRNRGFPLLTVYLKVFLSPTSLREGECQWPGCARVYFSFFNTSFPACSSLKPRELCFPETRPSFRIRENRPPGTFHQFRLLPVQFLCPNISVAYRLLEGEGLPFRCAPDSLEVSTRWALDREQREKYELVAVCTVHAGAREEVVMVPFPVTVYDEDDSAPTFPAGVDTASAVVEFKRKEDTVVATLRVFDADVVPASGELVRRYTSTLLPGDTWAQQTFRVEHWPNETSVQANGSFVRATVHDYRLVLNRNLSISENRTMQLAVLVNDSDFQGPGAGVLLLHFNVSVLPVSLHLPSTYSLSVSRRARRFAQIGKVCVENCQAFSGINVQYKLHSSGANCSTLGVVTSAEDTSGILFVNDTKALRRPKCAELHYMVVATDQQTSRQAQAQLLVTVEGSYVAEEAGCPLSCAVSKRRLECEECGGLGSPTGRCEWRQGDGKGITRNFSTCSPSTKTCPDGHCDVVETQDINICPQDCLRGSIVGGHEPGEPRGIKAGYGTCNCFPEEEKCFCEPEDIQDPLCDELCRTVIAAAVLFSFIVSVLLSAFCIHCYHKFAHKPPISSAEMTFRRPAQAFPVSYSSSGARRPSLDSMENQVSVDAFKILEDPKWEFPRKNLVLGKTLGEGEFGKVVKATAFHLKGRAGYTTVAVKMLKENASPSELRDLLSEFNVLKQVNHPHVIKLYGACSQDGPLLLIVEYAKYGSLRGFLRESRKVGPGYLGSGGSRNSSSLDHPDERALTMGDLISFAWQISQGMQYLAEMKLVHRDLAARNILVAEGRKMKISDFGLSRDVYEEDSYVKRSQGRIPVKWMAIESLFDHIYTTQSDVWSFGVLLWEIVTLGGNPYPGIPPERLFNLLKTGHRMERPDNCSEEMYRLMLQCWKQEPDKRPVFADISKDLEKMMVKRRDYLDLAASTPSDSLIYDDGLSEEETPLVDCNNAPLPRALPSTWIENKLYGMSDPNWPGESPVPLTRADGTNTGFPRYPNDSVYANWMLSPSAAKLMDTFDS
Cyclin-dependent kinase 5/CDK5 activator 1 (Homo sapiens), sequence (Q00535 whole entry): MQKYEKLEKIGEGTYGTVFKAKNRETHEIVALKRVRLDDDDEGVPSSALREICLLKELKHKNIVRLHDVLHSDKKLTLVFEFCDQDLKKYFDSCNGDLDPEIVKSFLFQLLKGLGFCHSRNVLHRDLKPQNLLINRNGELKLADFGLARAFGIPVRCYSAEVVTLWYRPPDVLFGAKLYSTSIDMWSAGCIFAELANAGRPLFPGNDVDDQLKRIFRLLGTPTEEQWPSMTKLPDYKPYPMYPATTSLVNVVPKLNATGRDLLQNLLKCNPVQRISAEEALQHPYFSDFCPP
Cyclin-dependent kinase 5/CDK5 activator 1 (Homo sapiens), sequence (Q15078 99-307 partner limits assumed): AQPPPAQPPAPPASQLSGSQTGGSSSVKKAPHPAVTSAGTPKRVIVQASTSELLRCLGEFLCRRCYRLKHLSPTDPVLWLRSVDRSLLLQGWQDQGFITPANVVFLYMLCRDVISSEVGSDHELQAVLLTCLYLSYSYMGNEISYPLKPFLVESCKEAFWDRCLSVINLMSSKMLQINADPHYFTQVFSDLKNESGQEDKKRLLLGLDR
cAMP-dependent protein kinase catalytic subunit PRKX (Homo sapiens), sequence (P51817 whole entry): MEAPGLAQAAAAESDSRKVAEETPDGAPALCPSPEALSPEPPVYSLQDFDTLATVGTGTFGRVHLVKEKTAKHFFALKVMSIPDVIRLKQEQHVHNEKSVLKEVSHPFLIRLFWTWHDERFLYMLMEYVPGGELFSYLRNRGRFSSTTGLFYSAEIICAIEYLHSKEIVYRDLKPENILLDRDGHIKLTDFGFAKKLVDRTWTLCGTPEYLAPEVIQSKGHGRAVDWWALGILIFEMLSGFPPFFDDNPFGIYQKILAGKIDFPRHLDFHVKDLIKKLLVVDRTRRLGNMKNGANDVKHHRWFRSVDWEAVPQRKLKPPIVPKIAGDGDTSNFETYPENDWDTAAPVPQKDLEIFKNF
Ribosomal protein S6 kinase alpha-3 (Homo sapiens), sequence (P51812 whole entry): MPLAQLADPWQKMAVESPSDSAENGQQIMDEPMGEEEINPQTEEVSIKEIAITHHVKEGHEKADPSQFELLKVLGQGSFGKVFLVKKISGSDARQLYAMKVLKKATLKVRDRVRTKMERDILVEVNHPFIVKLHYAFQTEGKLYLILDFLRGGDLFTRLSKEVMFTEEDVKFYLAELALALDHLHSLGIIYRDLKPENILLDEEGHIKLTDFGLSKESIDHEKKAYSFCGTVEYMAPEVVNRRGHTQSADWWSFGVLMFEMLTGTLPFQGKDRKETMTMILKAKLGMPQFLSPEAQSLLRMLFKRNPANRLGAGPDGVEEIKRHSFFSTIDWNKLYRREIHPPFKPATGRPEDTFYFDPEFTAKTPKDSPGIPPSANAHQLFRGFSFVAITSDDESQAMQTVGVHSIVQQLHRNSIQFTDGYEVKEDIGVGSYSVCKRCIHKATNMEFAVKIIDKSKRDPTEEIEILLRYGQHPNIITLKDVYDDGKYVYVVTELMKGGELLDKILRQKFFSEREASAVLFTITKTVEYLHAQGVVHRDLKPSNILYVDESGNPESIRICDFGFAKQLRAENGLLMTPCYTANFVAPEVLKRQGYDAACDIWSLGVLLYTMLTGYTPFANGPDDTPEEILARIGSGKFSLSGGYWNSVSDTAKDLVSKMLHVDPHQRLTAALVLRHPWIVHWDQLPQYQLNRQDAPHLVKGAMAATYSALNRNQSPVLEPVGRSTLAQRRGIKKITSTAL
RAC-gamma serine/threonine-protein kinase, sequence (Q9Y243 whole entry): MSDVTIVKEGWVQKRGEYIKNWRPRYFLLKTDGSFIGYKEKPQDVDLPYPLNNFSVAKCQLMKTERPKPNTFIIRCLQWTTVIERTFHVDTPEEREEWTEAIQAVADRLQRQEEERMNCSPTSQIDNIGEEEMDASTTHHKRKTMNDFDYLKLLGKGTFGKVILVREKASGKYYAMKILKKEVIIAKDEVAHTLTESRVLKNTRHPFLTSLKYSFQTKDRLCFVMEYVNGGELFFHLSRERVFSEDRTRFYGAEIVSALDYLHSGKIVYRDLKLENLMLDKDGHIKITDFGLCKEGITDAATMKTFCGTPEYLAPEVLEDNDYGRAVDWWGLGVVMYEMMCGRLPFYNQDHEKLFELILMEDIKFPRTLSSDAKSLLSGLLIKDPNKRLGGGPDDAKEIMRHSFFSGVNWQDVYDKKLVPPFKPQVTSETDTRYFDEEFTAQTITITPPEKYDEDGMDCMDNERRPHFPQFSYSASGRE
MAP kinase-activated protein kinase 2 (Homo sapiens), sequence (P49137 whole entry, looked up): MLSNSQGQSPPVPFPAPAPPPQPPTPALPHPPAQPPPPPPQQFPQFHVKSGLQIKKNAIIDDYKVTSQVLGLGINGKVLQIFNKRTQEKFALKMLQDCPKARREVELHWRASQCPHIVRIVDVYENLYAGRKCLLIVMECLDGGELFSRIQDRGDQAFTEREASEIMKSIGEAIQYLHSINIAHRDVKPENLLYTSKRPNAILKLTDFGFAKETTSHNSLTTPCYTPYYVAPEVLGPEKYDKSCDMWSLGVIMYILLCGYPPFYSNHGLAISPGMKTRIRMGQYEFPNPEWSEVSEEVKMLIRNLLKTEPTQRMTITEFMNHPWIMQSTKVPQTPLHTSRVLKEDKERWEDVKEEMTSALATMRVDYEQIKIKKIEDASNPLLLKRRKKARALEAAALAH

Row | Compound | inhibition [1] [%] | inhibition [2] [%] | IC50 (Cytochrome P450 2C19) [µM] | inhibition [3] [%] | inhibition [4] [%] | inhibition [5] [%] | inhibition [6] [%] | inhibition [7] [%] | IC50 (Cytochrome P450 2D6) [µM] | IC50 (Cytochrome P450 2C9) [µM] | inhibition [8] [%] | IC50 [9] [µM] | IC50 [10] [µM] | inhibition [11] [%] | inhibition [12] [%] | IC50 [13] [µM] | IC50 (AN3-CA) [µM] | inhibition [14] [%] | inhibition [15] [%] | inhibition [16] [%] | also measured
1 | Nc1ncccc1-c1nc2cccnc2n1-c1ccc(CNC(=O)c2ccccc2)cc1 | > 25 | > 25 | > 10 | > 25 | > 25 | > 25 | > 25 | > 25 | > 10 | > 10 | > 25 | 0.37 | > 10 | > 25 | > 25 | > 10 | > 100 | > 25 | > 25 | > 25 | inhibition [17]: > 25%; IC50 (Cytochrome P450 3A4): > 10 µM; inhibition [18]: > 25%; IC50 [19]: 0.66 µM; inhibition [20]: > 25%; half-life at 1 µM [21]: > 1 h; deltaTm [22]: inactive; inhibition [23]: > 25%; inhibition [24]: > 25%; ΔTm [25]: 6.4 °C; inhibition [26]: > 25%; inhibition [27]: > 25%; inhibition [28]: > 25%; half-life at 1 µM [29]: 1 h; inhibition [30]: > 25%; inhibition [31]: > 25%; inhibition [32]: > 25%; IC50 (A2780): > 100 µM; IC50 [33]: 0.41 µM; inhibition [34]: > 25%
2 | Nc1ncccc1-c1nc2cccnc2n1-c1ccc(CC(=O)Nc2ccccc2)cc1 | > 25 | > 25 | > 10 | > 25 | > 25 | > 25 | > 25 | > 25 | > 10 | > 10 | > 25 | 1.3 | > 10 | > 25 | > 25 | > 10 | 70 | > 25 | > 25 | > 25 | inhibition [17]: > 25%; IC50 (Cytochrome P450 3A4): > 10 µM; inhibition [18]: > 25%; IC50 [19]: 0.7 µM; inhibition [20]: > 25%; half-life at 1 µM [21]: > 1 h; deltaTm [22]: inactive; inhibition [23]: > 25%; inhibition [24]: > 25%; ΔTm [25]: 6.7 °C; inhibition [26]: > 25%; inhibition [27]: > 25%; inhibition [28]: > 25%; half-life at 1 µM [29]: 0.793 h; inhibition [30]: > 25%; inhibition [31]: > 25%; inhibition [32]: > 25%; IC50 (A2780): 57 µM; IC50 [33]: 0.21 µM; inhibition [34]: > 25%
